Measurements as given in ChEMBL document CHEMBL5131490, “5-Substituted 3, 3', 4', 7-tetramethoxyflavonoids - A novel class of potent DNA triplex specific binding ligands” (Bioorg Med Chem Lett, 2022).
Activity calls are given as the source filed them. The rule behind the calls is not given here.

Tests used:
[1] = Stabilization of [poly(dA).poly(dT)] triplex DNA (unknown origin) assessed as change in melting temperature at 10 uM by UV based assay
[2] = Binding affinity to triplex DNA1 containing 15 nucleotide-long triplex-forming region (unknown origin) assessed as change in melting temperature at 10 uM by UV based assay
[3] = Stabilization of [poly(dA).2poly(dT) triplex DNA (unknown origin) assessed as melting temperature at 20 uM by Thermal denaturation assay
[4] = Stabilization of [poly(dA).2poly(dT) triplex DNA (unknown origin) assessed as increase in melting temperature at 1 uM by Thermal denaturation assay
[5] = Stabilization of [poly(dA).2poly(dT) triplex DNA (unknown origin) assessed as melting temperature at 10 uM by DSC assay (reference value: 36.8 degC)
[6] = Stabilization of [poly(dA).2poly(dT) triplex DNA (unknown origin) assessed as deltaH level temperature at 10 uM by DSC assay (reference value: 5.19 KJ/mol)
[7] = Stabilization of [poly(dA).2poly(dT) triplex DNA (unknown origin) assessed as deltaS level temperature at 10 uM by DSC assay (reference value: 0.0167 mol.K)
[8] = Stabilization of [poly(dA).2poly(dT) triplex DNA (unknown origin) assessed as effect on CD spectrum up to 25 uM by CD spectroscopy
[9] = Binding affinity to triplex DNA1 containing 15 nucleotide-long triplex-forming region (unknown origin) at 100 uM by ITC

SMILES | ΔTm [1] [°C] | ΔTm [2] [°C] | Tm [3] [°C] | ΔTm [4] [°C] | Tm [5] [°C] | deltaH [6] [kcal/mol] | deltaS [7] | Activity [8] | Ka [9] [M⁻¹]
CCCN(CCC)CCCCOc1cc(OC)cc2oc(-c3ccc(OC)c(OC)c3)c(OC)c(=O)c12 | 10.3 | 11.2 | – | – | – | – | – | – | –
COc1cc(OCCCCN2CCCCC2)c2c(=O)c(OC)c(-c3ccc(OC)c(OC)c3)oc2c1 | 16.4 | 13.6 | 24 | 6 | – | – | – | – | –
COc1cc(OCCCCN2CCCC2)c2c(=O)c(OC)c(-c3ccc(OC)c(OC)c3)oc2c1 | 17.4 | 12.6 | – | – | 48.9 | 2.08 | 0.0271 KJ/(mol.K) | Active | 310000
COc1cc(O)c2c(=O)c(OC)c(-c3ccc(OC)c(OC)c3)oc2c1 | 2.5 | 3.2 | – | – | 38.5 | 1.24 | 0.0167 KJ/(mol.K) | Active | –
CCN(CC)CCCCOc1cc(OC)cc2oc(-c3ccc(OC)c(OC)c3)c(OC)c(=O)c12 | 14.5 | 11.2 | – | – | – | – | – | – | –
COc1cc(OCCCCN2CCN(C)CC2)c2c(=O)c(OC)c(-c3ccc(OC)c(OC)c3)oc2c1 | 12.3 | 5.6 | – | – | – | – | – | – | –
CCCCCN(CCCCC)CCCCOc1cc(OC)cc2oc(-c3ccc(OC)c(OC)c3)c(OC)c(=O)c12 | 2.4 | 5.6 | – | – | – | – | – | – | –
CCCCN(CCCC)CCCCOc1cc(OC)cc2oc(-c3ccc(OC)c(OC)c3)c(OC)c(=O)c12 | 3.3 | 5.6 | – | – | – | – | – | – | –
NC[C@@H]1O[C@H](O[C@H]2[C@@H](O)[C@H](O[C@@H]3[C@@H](O)[C@H](N)C[C@H](N)[C@H]3O[C@H]3O[C@H](CN)[C@@H](O)[C@H](O)[C@H]3N)O[C@@H]2CO)[C@H](N)[C@@H](O)[C@@H]1O | – | – | 24 | – | – | – | – | – | 160000
